Experimental findings from patent US20240270762A1, “PENICILLIN-BINDING PROTEIN INHIBITORS” (priority 2021, published 2024) are described below.

SMILES strings stand for the structures. In brackets after ≈: the same amount, converted by molar mass.

For assay [1], the target named is T1, PBP2 from Neisseria gonorrhoeae (FA19) (Neisseria gonorrhoeae, UniProt P08149).
T1 construct: made in house
The assay can be described thus: Bocillin-FL fluorescence polarization competition binding, N. gonorrhoeae PBP2. The conditions noted are these: fluorescence polarization competition binding assay using Bocillin-FL, read-out: N. gonorrhoeae PBP2 Potency. A digest of the protocol:
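Fluorescence polarization competition with 0.1 μM Bocillin-FL (fluorescent penicillin V) against 0.25 μM N. gonorrhoeae FA19 PBP2 in 50 mM Hepes pH 8.0, 300 mM NaCl, 10% glycerol. Boronic acid inhibitors were preincubated with PBP, then Bocillin-FL was added and FP read (490/520 nm) up to 60 min. EC50 is the concentration halving PBP-bound Bocillin-FL.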

Assay [2] deals with E. coli AG100. The assay can be described thus: microbe, parasite or virus in culture. In kind it is cell-based. Particulars: Escherichia coli, AG100, read-out: MIC E. coli AG100.
Assay [3] relates to E. coli 901C. The assay can be described thus: microbe, parasite or virus in culture. The conditions noted are these: Escherichia coli, read-out: MIC E. coli 901C. In kind it is cell-based.
Assay [4] deals with E. coli D22. The assay can be described thus: microbe, parasite or virus in culture. It counts as cell-based. The conditions noted are these: Escherichia coli, D22, read-out: MIC E. coli D22.
For assay [5], the system named is E. coli AG100A. The assay is described as follows: Broth microdilution MIC in CAMHB. It counts as cell-based. Particulars: Escherichia coli, read-out: MIC E. coli AG100A. For orientation: Dilution methods test growth across graded concentrations, often in twofold steps.
The test system of assay [6] is K. pneumoniae UMM. The assay can be described thus: microbe, parasite or virus in culture. In kind it is cell-based. The conditions noted are these: Klebsiella pneumoniae, read-out: MIC K. pneumoniae UMM.
Assay [7] deals with K. pneumoniae SI-117. The assay is described as follows: microbe, parasite or virus in culture. It counts as cell-based. The conditions noted are these: Klebsiella pneumoniae, SI117, read-out: MIC K. pneumoniae SI-117.
For assay [8], the system named is A. baumannii ATCC 19606. The assay is described as follows: microbe, parasite or virus in culture. In kind it is cell-based. The conditions noted are these: Acinetobacter baumannii, ATCC19606, read-out: MIC, A. baumannii ATCC 19606.
Assay [9] relates to P. aeruginosa ATCC 35151. The assay is described as follows: microbe, parasite or virus in culture. It counts as cell-based. Particulars: Pseudomonas aeruginosa, ATCC35151, read-out: MIC P. aeruginosa ATCC 35151.
Assay [10] has as its system P. aeruginosa (ΔmexAB-oprM). The assay can be described thus: Broth microdilution MIC in CAMHB. In kind it is cell-based. The conditions noted are these: Pseudomonas aeruginosa; read-out: MIC P. aeruginosa ΔmexAB-oprM.
The subject of assay [11] is B. pseudomallei Bp82. The assay is described as follows: microbe, parasite or virus in culture. Particulars: Burkholderia pseudomallei, BP82, read-out: Minimum inhibitory concentration, B. pseudomallei Bp82. In kind it is cell-based.

T1 sequence (P08149 whole entry): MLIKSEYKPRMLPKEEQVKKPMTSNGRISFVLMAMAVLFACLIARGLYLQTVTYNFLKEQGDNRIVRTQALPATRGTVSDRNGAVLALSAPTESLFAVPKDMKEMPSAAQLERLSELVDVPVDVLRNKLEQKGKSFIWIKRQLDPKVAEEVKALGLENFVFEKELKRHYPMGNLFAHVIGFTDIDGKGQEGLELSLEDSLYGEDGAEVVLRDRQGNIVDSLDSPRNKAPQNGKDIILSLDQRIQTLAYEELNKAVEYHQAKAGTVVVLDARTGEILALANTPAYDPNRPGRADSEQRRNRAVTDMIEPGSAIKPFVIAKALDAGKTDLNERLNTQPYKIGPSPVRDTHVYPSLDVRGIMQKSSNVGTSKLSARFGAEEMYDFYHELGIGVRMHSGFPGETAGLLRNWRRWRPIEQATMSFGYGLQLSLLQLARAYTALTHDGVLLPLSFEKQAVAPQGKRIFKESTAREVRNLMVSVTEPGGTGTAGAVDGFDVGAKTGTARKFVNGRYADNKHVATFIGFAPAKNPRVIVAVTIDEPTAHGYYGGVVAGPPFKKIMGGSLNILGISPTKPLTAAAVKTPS

In the case of `CS(=O)(=O)N1CCN(C(=O)N[C@H](C(=O)N[C@H]2Cc3cccc(C(=O)O)c3OB2O)c2ccc(P(=O)(O)O)cc2)C1=O` (single isomer, unassigned) [Example 5], the EC50 in [1] was below 10 µM. The MIC in assay [2] was 32 to 64 µg/mL (≈ 52.4 to 105 µM); in [3] it was below 1 µg/mL; in assay [4], 8 to 16 µg/mL (≈ 13.1 to 26.2 µM); in assay [5], 32 to 64 µg/mL (≈ 52.4 to 105 µM); in [6], above 128 µg/mL; in [7], above 128 µg/mL. Moreover, the MIC in [8] is above 128 µg/mL; in assay [9], 8 to 16 µg/mL (≈ 13.1 to 26.2 µM); in [10] it was 32 to 64 µg/mL (≈ 52.4 to 105 µM).
As to `CS(=O)(=O)N1CCN(C(=O)N[C@@H](C(=O)N[C@H]2Cc3cccc(C(=O)O)c3OB2O)c2ccc(P(=O)(O)O)cc2)C1=O` (single isomer, unassigned) [Example 6], the EC50 in assay [1] is below 10 µM. Moreover, the MIC in [2] is 8 to 16 µg/mL (≈ 13.1 to 26.2 µM); in [3], below 1 µg/mL; in assay [4], 2 to 4 µg/mL (≈ 3.28 to 6.55 µM); in assay [5], 8 to 16 µg/mL (≈ 13.1 to 26.2 µM); in assay [6], 32 to 64 µg/mL (≈ 52.4 to 105 µM); in assay [7] it was above 128 µg/mL. Moreover, the values for the MIC in assay [8], in assay [9] and in assay [10] were 8 to 16 µg/mL (≈ 13.1 to 26.2 µM), below 1 µg/mL and 8 to 16 µg/mL (≈ 13.1 to 26.2 µM), respectively.
As to `CCN1CCN(C(=O)NC(C(=O)N[C@H]2Cc3cccc(C(=O)O)c3OB2O)c2ccc(P(=O)(O)O)cc2F)C(=O)C1=O` (stereo partly drawn) [Example 1, (3R)-3-(2-(4-ethyl-2,3-dioxopiperazine-1-carboxamido)-2-(2-fluoro-4-phosphonophenyl)acetamido)-2-hydroxy-3,4-dihydro-2H-benzo[e][1,2]oxaborinine-8-carboxylic acid], the EC50 in assay [1] was below 10 µM. In addition, the MIC in assay [2] is 32 to 64 µg/mL (≈ 52.8 to 106 µM); in assay [3], below 1 µg/mL; in assay [4], 2 to 4 µg/mL (≈ 3.3 to 6.6 µM); in assay [5], 8 to 16 µg/mL (≈ 13.2 to 26.4 µM); in assay [6], 32 to 64 µg/mL (≈ 52.8 to 106 µM); in assay [7], above 128 µg/mL. In addition, the results for the MIC in assay [8], in assay [9] and in [10] were 32 to 64 µg/mL (≈ 52.8 to 106 µM), below 1 µg/mL and 32 to 64 µg/mL (≈ 52.8 to 106 µM), respectively.
Consider `CCN1CCN(C(=O)NC(C(=O)N[C@H]2Cc3cccc(C(=O)O)c3OB2O)c2cc(P(=O)(O)O)ccc2F)C(=O)C1=O` (stereo partly drawn) [Example 2, (3R)-3-(2-(4-ethyl-2,3-dioxopiperazine-1-carboxamido)-2-(2-fluoro-5-phosphonophenyl)acetamido)-2-hydroxy-3,4-dihydro-2H-benzo[e][1,2]oxaborinine-8-carboxylic acid], for which the EC50 in [1] is below 10 µM. Further, the MIC in assay [2] was 32 to 64 µg/mL (≈ 52.8 to 106 µM); in assay [3] it was below 1 µg/mL; in assay [4], 2 to 4 µg/mL (≈ 3.3 to 6.6 µM); in assay [5] it was 32 to 64 µg/mL (≈ 52.8 to 106 µM); in [6], 32 to 64 µg/mL (≈ 52.8 to 106 µM); in assay [7], above 128 µg/mL. For the same compound, the values for the MIC in assay [8], in assay [9] and in assay [10] were above 128 µg/mL, below 1 µg/mL and 8 to 16 µg/mL (≈ 13.2 to 26.4 µM), respectively.
As to `NCCN1CCN(C(=O)NC(C(=O)N[C@H]2Cc3cccc(C(=O)O)c3OB2O)c2ccc(P(=O)(O)O)cc2)C(=O)C1=O` (stereo partly drawn) [Example 3, (3R)-3-(2-(4-(2-aminoethyl)-2,3-dioxopiperazine-1-carboxamido)-2-(4-phosphonophenyl)acetamido)-2-hydroxy-3,4-dihydro-2H-benzo[e][1,2]oxaborinine-8-carboxylic acid], the EC50 in assay [1] is below 10 µM. The MIC was 32 to 64 µg/mL (≈ 53 to 106 µM) in assay [2]; 2 to 4 µg/mL (≈ 3.32 to 6.63 µM) in assay [3]; 8 to 16 µg/mL (≈ 13.3 to 26.5 µM) in assay [4]; 8 to 16 µg/mL (≈ 13.3 to 26.5 µM) in assay [5]; 32 to 64 µg/mL (≈ 53 to 106 µM) in [6]; above 128 µg/mL in [7]. Also, the MIC was 32 to 64 µg/mL (≈ 53 to 106 µM) in [8], below 1 µg/mL in assay [9] and 32 to 64 µg/mL (≈ 53 to 106 µM) in assay [10].
Turning to `O=C(O)c1cccc2c1OB(O)[C@@H](NC(=O)C(NC(=O)N1CCN(CC(F)(F)F)C(=O)C1=O)c1ccc(P(=O)(O)O)cc1)C2` (stereo partly drawn) [Example 4, (3R)-3-(2-(2,3-dioxo-4-(2,2,2-trifluoroethyl)piperazine-1-carboxamido)-2-(4-phosphonophenyl)acetamido)-2-hydroxy-3,4-dihydro-2H-benzo[e][1,2]oxaborinine-8-carboxylic acid], the EC50 in assay [1] was below 10 µM. The MIC in assay [2] was above 128 µg/mL; in assay [3], below 1 µg/mL; in assay [4], 8 to 16 µg/mL (≈ 12.5 to 24.9 µM); in assay [5], 8 to 16 µg/mL (≈ 12.5 to 24.9 µM); in [6] it was above 128 µg/mL; in assay [7], above 128 µg/mL. The MIC in assay [8] is above 128 µg/mL; in assay [9], 8 to 16 µg/mL (≈ 12.5 to 24.9 µM); in assay [10], 32 to 64 µg/mL (≈ 49.8 to 99.7 µM).
For `O=C(NCCN1CCN(C(=O)N[C@@H](C(=O)N[C@H]2Cc3ccc(F)c(C(=O)O)c3OB2O)c2cc(F)c(O)c(O)c2Cl)C1=O)Nc1ccc(O)cc1` [Example 279, (R)-3-((R)-2-(2-chloro-5-fluoro-3,4-dihydroxyphenyl)-2-(3-(2-(3-(4-hydroxyphenyl)ureido)ethyl)-2-oxoimidazolidine-1-carboxamido)acetamido)-7-fluoro-2-hydroxy-3,4-dihydro-2H-benzo[e][1,2]oxaborinine-8-carboxylic acid], in assay [11], the MIC is below 1 µg/mL.
